This note sets out measurements from patent US20130045500A1, “CELL EVALUATION METHOD” (NATIONAL CANCER CENTER, priority 2011, published 2013).

This assay relates to human breast-cancer-derived cell line T47D. In words: Survival rate by ATP assay (CellTiter-Glo) and number of spheroids on NanoCulture plate. It counts as cell-based. The settings on record: trastuzumab 10 μg/mL, paclitaxel 6.0 μg/mL, 7 days after medicine was added, expected effects confirmed in b72 (FIG. 8, FIG. 9). (ATP-based viability assays read luminescence as a measure of living cells.)

SMILES strings stand for the structures.

Procedure: A human breast-cancer-derived cell line T47D was suspended in a culture medium (NCM-M made by SCIVAX Co., Ltd.), and seeded on a NanoCulture (registered mark) plate (made by SCIVAX Co., Ltd., 96-well plate, material of concavo-convex structure surface: cyclic-olefin polymer (COP), planar shape of concavo-convex structure: regular hexagon, width between unit structures (line width): 700 nm, minimum internal diameter of unit structure: 3 μm, and depth: 1 μm) at 1×10^4 cells/well, and incubated at 37° C. and 5% CO2.
The survival rate of the cell on the tenth day (the seventh day after medicines were added) was evaluated based on the assay of the ATP in the cell using CellTiter-Glo Luminescent Cell Viability Assay (Promega KK.) and calculated as a relative value, and the results are shown in FIG. 8.

In the case of `CC(=O)O[C@H]1C(=O)[C@@]2(C)[C@H]([C@H](OC(=O)c3ccccc3)[C@]3(O)C[C@H](OC(=O)[C@H](O)[C@@H](NC(=O)c4ccccc4)c4ccccc4)C(C)=C1C3(C)C)[C@]1(OC(C)=O)CO[C@@H]1C[C@@H]2O` [paclitaxel], the “antitumor effect (ATP amount in the cell and number of spheroids)” value is “shows an antitumor effect”.
